Source: ChEMBL document CHEMBL4024791, “Identification of Morpholino-2H-pyrido[3,2-b][1,4]oxazin-3(4H)-ones as Nonsteroidal Mineralocorticoid Antagonists” (J Med Chem, 2018)
pIC50: −log10 of the molar value. Calls of active or inactive are those of the source. The rule behind the calls is not given here.

Key:
[1] = Distribution coefficient, log D of the compound; format: physicochemical; details: octanol/water
[2] = Intrinsic clearance in human liver microsomes
[3] = Clearance in rat at 1 mg/kg, iv; details: in vivo
[4] = Intrinsic clearance in rat liver microsomes
[5] = molecular target: T1, Mineralocorticoid receptor (Homo sapiens, UniProt P08235)
T1 sequence (P08235 whole entry): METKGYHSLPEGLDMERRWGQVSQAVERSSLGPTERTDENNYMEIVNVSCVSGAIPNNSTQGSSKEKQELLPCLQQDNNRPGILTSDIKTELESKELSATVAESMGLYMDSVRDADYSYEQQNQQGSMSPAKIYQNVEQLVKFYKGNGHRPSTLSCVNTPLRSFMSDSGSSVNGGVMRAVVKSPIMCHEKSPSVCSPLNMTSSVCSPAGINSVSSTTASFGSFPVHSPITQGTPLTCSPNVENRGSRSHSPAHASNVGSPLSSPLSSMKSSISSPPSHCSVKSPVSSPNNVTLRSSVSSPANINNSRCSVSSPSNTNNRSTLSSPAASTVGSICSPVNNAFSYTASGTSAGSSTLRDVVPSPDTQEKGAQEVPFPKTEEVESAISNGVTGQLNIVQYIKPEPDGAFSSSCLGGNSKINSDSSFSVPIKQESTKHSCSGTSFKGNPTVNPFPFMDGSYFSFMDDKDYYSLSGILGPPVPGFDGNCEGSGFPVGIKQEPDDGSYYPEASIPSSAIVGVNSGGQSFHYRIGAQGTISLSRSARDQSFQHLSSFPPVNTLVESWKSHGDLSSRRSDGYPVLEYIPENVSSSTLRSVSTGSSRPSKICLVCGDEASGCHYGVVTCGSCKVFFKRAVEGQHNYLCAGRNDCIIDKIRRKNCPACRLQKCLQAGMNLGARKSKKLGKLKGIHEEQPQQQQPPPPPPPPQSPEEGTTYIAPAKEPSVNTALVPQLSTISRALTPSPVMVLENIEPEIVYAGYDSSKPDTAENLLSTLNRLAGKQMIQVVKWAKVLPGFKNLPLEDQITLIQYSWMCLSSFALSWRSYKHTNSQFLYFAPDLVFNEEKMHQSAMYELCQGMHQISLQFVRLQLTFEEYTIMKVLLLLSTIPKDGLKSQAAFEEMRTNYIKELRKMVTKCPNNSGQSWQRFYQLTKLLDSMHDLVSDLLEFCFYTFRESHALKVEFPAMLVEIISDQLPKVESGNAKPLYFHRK
Description: Displacement of [3H]-aldosterone from human GST-tagged MR ligand binding domain after 4 hrs by liquid scintillation counting

[6] = molecular target: T1, Mineralocorticoid receptor; remark: listed apart in the source
Description: Antagonist activity at human GAL4-DBD fused MR ligand binding domain transfected in human Huh7 cells co-expressing GAL4-RE-Luc assessed as reduction in aldosterone-induced luciferase activity after 16 hrs in presence of serum by luciferase reporter gene assay

[7] = test system: Rattus norvegicus; experiment: In vivo antagonist activity at MR in Wistar rat assessed as increase in urinary Na+ /K+ ratio at 100 mg/kg, po administered as single dose measured after 2 to 6 hrs post dose; format: functional, organism-based

| Structure (SMILES) | logD [1] | microsomal CLint [2] [µL/min/mg] | clearance [3] [mL/min/kg] | microsomal CLint [4] [µL/min/mg] | pIC50 [5] | pIC50 [6] | inhibition [7] |
| --- | --- | --- | --- | --- | --- | --- | --- |
| C[C@@H]1CN(c2ccc3c(n2)NC(=O)CO3)[C@H](c2cccc(F)c2)CO1 | 3.1 | 9.6 | – | – | – | – | – |
| O=C1COc2ccc(N3C[C@@H](CO)OC[C@H]3c3ccccc3)nc2N1 | 1.8 | 14.8 | 52 | 44 | < 5.00 | 5.00 | – |
| O=C1COc2ccc(N3CCOC[C@H]3c3ccccc3)nc2N1 | 2.4 | 8.9 | – | – | 5.93 | – | – |
| C[C@@H]1CN(c2ccc3c(n2)NC(=O)CO3)[C@H](c2ccc(F)cc2)CO1 | 3.2 | 8 | – | – | – | – | – |
| N#CC[C@@H]1CN(c2ccc3c(n2)NC(=O)CO3)[C@H](c2ccccc2)CO1 | 2.3 | 11.9 | – | – | 7.25 | – | – |
| COC[C@@H]1CN(c2ccc3c(n2)NC(=O)CO3)[C@H](c2ccccc2)CO1 | 2.5 | 8 | – | – | 6.56 | 6.45 | – |
| C[C@@H]1CN(c2cnc3c(c2)NC(=O)CO3)[C@H](c2ccccc2)CO1 | 1.9 | 13.9 | – | – | 5.65 | – | – |
| C[C@@H]1CN(c2ccc3c(n2)NC(=O)CO3)[C@H](c2ccccc2F)CO1 | 3.1 | 14 | – | – | 7.89 | 7.48 | – |
| C[C@@H]1CN(c2ncc3c(n2)NC(=O)CO3)[C@H](c2ccccc2)CO1 | 2.7 | 8 | 95 | 146 | 6.95 | – | – |
| C[C@@H]1CN(c2cc3c(cn2)OCC(=O)N3)[C@H](c2ccccc2)CO1 | 2.5 | 12.6 | – | – | 6.96 | – | – |
| CC1(C)CN(c2ccc3c(n2)NC(=O)CO3)[C@H](c2ccccc2)CO1 | 3.3 | 15.2 | – | – | 7.07 | – | – |
| COC(=O)[C@@H]1CC2=CC(=O)CC[C@]2(C)[C@@]23O[C@@H]2C[C@@]2(C)[C@@H](CC[C@@]24CCC(=O)O4)[C@H]13 | – | – | – | – | – | – | Active |
| C[C@@H]1CN(c2ccc3c(c2)NC(=O)CO3)[C@H](c2ccccc2)CO1 | 3.1 | 15.8 | 54 | 377 | 7.89 | – | – |
| C[C@H]1CN(c2ccc3c(n2)NC(=O)CO3)[C@H](c2ccccc2)CO1 | 2.7 | – | – | – | – | – | – |
